Consider two compounds from patent US8841233B2, “Herbicidal compositions comprising 4-amino-3-chloro-5-fluoro-6-(4-chloro-2-fluoro-3-methoxyphenyl) pyridine-2-carboxylic acid or a derivative thereof and 4-hydroxyphenyl-pyruvate dioxygenase (HPPD) inhibitors” (Dow Agrosciences LLC, priority 2012, dated 2014).

In one experiment the test system is FIMMI. The experiment in a line: In-water applied weed control, transplanted paddy rice, greenhouse (Example II). The format is in vivo, Fimbristylis miliacea (L.) Vahl. How it is done:
(§1) Evaluation of in-Water Applied Herbicidal Mixtures for Weed Control in Transplanted Paddy Rice
(§2) Weed seeds or nutlets of the desired test plant species were planted in puddled soil (mud) prepared by mixing a shredded, non-sterilized mineral soil (50.5 percent silt, 25.5 percent clay, and 24 percent sand, with a pH of about 7.6 and an organic matter content of about 2.9 percent) and water at a 1:1 volumetric ratio. The prepared mud was dispensed in 365 mL aliquots into 16-ounce (oz.) non-perforated plastic pots with a surface area of 86.59 square centimeters (cm^2) leaving a headspace of 3 centimeters (cm) in each pot. Mud was allowed to dry overnight prior to planting or transplanting. Rice seeds were planted in Sun Gro MetroMix® 306 planting mixture, which typically has a pH of 6.0 to 6.8 and an organic matter content of about 30 percent, in plastic plug trays. Seedlings at the second or third leaf stage of growth were transplanted into 840 mL of mud contained in 32-oz. non-perforated plastic pots with a surface area of 86.59 cm^2 4 days prior to herbicide application. The paddy was created by filling the headspace of the pots with 2.5 to 3 cm of water. When required to ensure good germination and healthy plants, a fungicide treatment and/or other chemical or physical treatment was applied. The plants were grown for 4-22 days in a greenhouse with an approximate 14 h photoperiod which was maintained at about 29′C during the day and 26° C. during the night. Nutrients were added as Osmocote® (19:6:12, N:P:K+ minor nutrients) at 2 g per 16-oz. pot and 4 g per 32-oz. pot. Water was added on a regular basis to maintain the paddy flood, and supplemental lighting was provided with overhead metal halide 1000-Watt lamps as necessary. The plants were employed for testing when they reached the first through fourth true leaf stage.
(§3) Treatments consisted of the acid or esters of 4-amino-3-chloro-5-fluoro-6-(4-chloro-2-fluoro-3-methoxy-phenyl)pyridine-2-carboxylic acid (compound A) each formulated as an SC (suspension concentrate) and various herbicidal components alone and in combination. Forms of compound A were applied on an acid equivalent basis.
(§4) Other herbicidal components were applied on an active ingredient basis and included 4-hydroxyphenyl pyruvate dioxygenase (HPPD)-inhibiting herbicides mesotrione formulated as Callisto®, sulcotrione formulated as Mikado®, pyrazolynate formulated as Sunbird® 10% GR, and benzobicyclon formulated as Benzobicyclon 3.5% or technical material.
(§5) Treatment requirements for each compound or herbicidal component were calculated based upon the rates being tested, the concentration of active ingredient or acid equivalent in the formulation, an application volume of 2 mL per component per pot, and an application area of 86.59 cm^2 per pot.
(§6) For formulated compounds, a measured amount was placed in an individual 100 or 200 mL glass vial and was dissolved in a volume of 1.25% (v/v) Agri-Dex® crop oil concentrate to obtain application solutions.
(§7) For technical grade compounds, a weighed amount was placed in an individual 100 to 200 mL glass vial and was dissolved in a volume of acetone to obtain concentrated stock solutions. […] The concentrated stock solutions obtained were diluted with an equivalent volume of an aqueous mixture containing 2.5% (v/v) crop oil concentrate so that the final application solutions contained 1.25% (v/v) crop oil concentrate.
(§8) Applications were made by injecting with a pipetter appropriate amounts of the application solutions, individually and sequentially, into the aqueous layer of the paddy. Control plants were treated in the same manner with the solvent blank. Applications were made so that all treated plant material received the same concentrations of acetone and crop oil concentrate.
(§9) The treated plants and control plants were placed in a greenhouse as described above and water was added as needed to maintain a paddy flood. […]

The test system of another experiment is SCPMA. Described as above. The experiment is classed as in vivo. The procedure:
as §1, §2, §3, §4, §5, §6, §7, §8, §9

`COc1c(Cl)ccc(-c2nc(C(=O)O)c(Cl)c(N)c2F)c1F` [Compound A Acid, 4-amino-3-chloro-6-(4-chloro-2-fluoro-3-methoxyphenyl)-5-fluoropyridine-2-carboxylic acid]: the “Visual Weed Control (%) - 21 DAA FIMMI Obs” value in the experiment with FIMMI (17.5 gae/ha) and with FIMMI (35 gae/ha) was 85% throughout. The “Visual Weed Control (%) - 21 DAA SCPMA Obs” value in the experiment with SCPMA (8.75 gae/ha), with SCPMA (17.5 gae/ha) and with SCPMA (35 gae/ha) was 0% in each case.
In the case of `COc1c(Cl)ccc(-c2nc(C(=O)OCc3ccccc3)c(Cl)c(N)c2F)c1F` [Compound A Benzyl Ester, benzyl ester of 4-amino-3-chloro-5-fluoro-6-(4-chloro-2-fluoro-3-methoxy-phenyl)pyridine-2-carboxylic acid], the figures for the “Visual Weed Control (%) - 21 DAA FIMMI Obs” value in the experiment with FIMMI (8 gae/ha) and in the experiment with FIMMI (16 gae/ha) were 15% and 65%, respectively. The “Visual Weed Control (%) - 21 DAA SCPMA Obs” value in the experiment with SCPMA (4.38 gae/ha), in the experiment with SCPMA (8 gae/ha), in the experiment on SCPMA (8.75 gae/ha), in the experiment with SCPMA (16 gae/ha), in the experiment on SCPMA (17.5 gae/ha) and in the experiment with SCPMA (32 gae/ha) was 0% each time. Further, the “Visual Weed Control (%) - 21 DAA SCPMA Obs” value with SCPMA (48 gae/ha) and with SCPMA (96 gae/ha) was 0% each time.
